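Tested at 5 concentrations; 48 h exposure; 96-well plates; endpoints linearly interpolated, else capped at highest concentration. GI50 marks 50% less growth.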 Activity calls are given as the source filed them. Rule as the data show it: active = GI50 up to about 1.1 µM and inactive = higher.
Columns and labels:
Assay in all cases: DTP human tumour cell line panel, 48 h
HOP-62 = tested on: HOP-62
UACC-257 = tested on: UACC-257
SF-539 = tested on: SF-539
RPMI-8226 = tested on: RPMI-8226
SK-MEL-28 = tested on: SK-MEL-28
SN12C = tested on: SN12C
SW-620 = tested on: SW-620
HOP-92 = tested on: HOP-92
SF-295 = tested on: SF-295
NCI/ADR-RES = tested on: NCI/ADR-RES
HT-29 = tested on: HT-29
SK-MEL-2 = tested on: SK-MEL-2
SK-MEL-5 = tested on: SK-MEL-5
HCT-15 = tested on: HCT-15
NCI-H23 = tested on: NCI-H23
786-0 = tested on: 786-0
DU-145 = tested on: DU-145
ACHN = tested on: ACHN
SR = tested on: SR
MDA-MB-435 = tested on: MDA-MB-435

In the case of `CC[C@@]1(O)C[C@H](OC2CC(N(C)C)C(OC3CC(O)C(OC4CC(O)C(O)C(C)O4)C(C)O3)C(C)O2)c2c(cc3c(c2O)C(=O)c2c(O)ccc(O)c2C3=O)[C@H]1C(=O)OC` (stereo partly drawn), the GI50 (HOP-62) is reported as 0.06 µM (active), the GI50 (UACC-257) is reported as 0.0255 µM (active) and the GI50 (SF-539) is reported as < 0.0214 µM (active). The GI50 (RPMI-8226) was 0.011 µM (active), the GI50 (SK-MEL-28) was 0.0369 µM (active) and the GI50 (SN12C) was 0.0148 µM (active). The GI50 (SW-620) was 0.00875 µM (active), the GI50 (HOP-92) was 0.0902 µM (active) and the GI50 (SF-295) was 0.0113 µM (active). For the same molecule, the GI50 (NCI/ADR-RES) was 0.625 µM (active), the GI50 (HT-29) was 0.022 µM (active) and the GI50 (SK-MEL-2) was 0.0398 µM (active). The GI50 (SK-MEL-5) was 0.0194 µM (active), the GI50 (HCT-15) was 0.151 µM and the GI50 (NCI-H23) was 0.0404 µM (active).
In the case of `C[Si](C)(C)C#CCOC=C1CC1`, the GI50 (HOP-62) is reported as > 100 µM (inactive), the GI50 (UACC-257) is reported as > 100 µM (inactive) and the GI50 (SF-539) is reported as > 100 µM (inactive). For the same molecule, the GI50 (SK-MEL-28) was > 100 µM (inactive), the GI50 (SN12C) was > 100 µM (inactive) and the GI50 (SW-620) was > 100 µM (inactive). The GI50 (SF-295) was > 100 µM (inactive), the GI50 (NCI/ADR-RES) was > 100 µM (inactive) and the GI50 (HT-29) was > 100 µM (inactive). For the same molecule, the GI50 (786-0) was 47.1 µM (inactive), the GI50 (DU-145) was > 100 µM (inactive) and the GI50 (SK-MEL-2) was > 100 µM (inactive). For the same molecule, the GI50 (ACHN) was > 100 µM (inactive), the GI50 (SK-MEL-5) was > 100 µM (inactive) and the GI50 (SR) was 52.5 µM (inactive). For the same molecule, the GI50 (HCT-15) was over 100 µM and the GI50 (NCI-H23) was > 100 µM (inactive).
With `CN1CCCC2(CCCc3ccccc32)C1` (stereo not drawn) the GI50 (HOP-62) was > 100 µM (inactive), the GI50 (UACC-257) was > 100 µM (inactive) and the GI50 (SF-539) was > 100 µM (inactive). For the same molecule, the GI50 (RPMI-8226) was > 100 µM (inactive), the GI50 (SK-MEL-28) was > 100 µM (inactive) and the GI50 (SN12C) was > 100 µM (inactive). For the same molecule, the GI50 (SW-620) was > 100 µM (inactive), the GI50 (HOP-92) was 69.5 µM (inactive) and the GI50 (SF-295) was > 100 µM (inactive). The GI50 (HT-29) was > 100 µM (inactive), the GI50 (786-0) was > 100 µM (inactive) and the GI50 (SK-MEL-2) was > 100 µM (inactive). The GI50 (ACHN) was > 100 µM (inactive), the GI50 (SK-MEL-5) was > 100 µM (inactive) and the GI50 (SR) was > 100 µM (inactive). The GI50 (HCT-15) was over 100 µM and the GI50 (NCI-H23) was > 100 µM (inactive).
For `C=C1CN=C(Nc2ccc(Cl)cc2)S1`, the GI50 (HOP-62) was > 100 µM (inactive), the GI50 (UACC-257) was > 100 µM (inactive) and the GI50 (SF-539) was > 100 µM (inactive). The GI50 (RPMI-8226) was 83.8 µM (inactive), the GI50 (SK-MEL-28) was > 100 µM (inactive) and the GI50 (SN12C) was > 100 µM (inactive). For the same molecule, the GI50 (SW-620) was > 100 µM (inactive), the GI50 (HOP-92) was 28.2 µM (inactive) and the GI50 (SF-295) was > 100 µM (inactive). The GI50 (NCI/ADR-RES) was > 100 µM (inactive), the GI50 (HT-29) was > 100 µM (inactive) and the GI50 (786-0) was > 100 µM (inactive). For the same molecule, the GI50 (DU-145) was > 100 µM (inactive), the GI50 (SK-MEL-2) was > 100 µM (inactive) and the GI50 (ACHN) was > 100 µM (inactive). The GI50 (SK-MEL-5) was > 100 µM (inactive), the GI50 (SR) was 52.8 µM (inactive) and the GI50 (HCT-15) was over 100 µM. For the same molecule, the GI50 (NCI-H23) was > 100 µM (inactive).
For `c1ccc2c(c1)NC(C1OC3CCCN3C1C1Nc3ccccc3S1)S2` (stereo not drawn), the GI50 (HOP-62) was 97.9 µM (inactive), the GI50 (UACC-257) was 48.3 µM (inactive) and the GI50 (SF-539) was > 100 µM (inactive). The GI50 (RPMI-8226) was 23 µM (inactive), the GI50 (SK-MEL-28) was > 100 µM (inactive) and the GI50 (SN12C) was > 100 µM (inactive). For the same molecule, the GI50 (SW-620) was > 100 µM (inactive), the GI50 (HOP-92) was > 100 µM (inactive) and the GI50 (SF-295) was 90.6 µM (inactive). The GI50 (HT-29) was 44.4 µM (inactive), the GI50 (786-0) was > 100 µM (inactive) and the GI50 (DU-145) was > 100 µM (inactive). For the same molecule, the GI50 (MDA-MB-435) was 75.2 µM (inactive), the GI50 (ACHN) was > 100 µM (inactive) and the GI50 (SK-MEL-5) was 39.6 µM (inactive). The GI50 (SR) was 22.3 µM (inactive), the GI50 (HCT-15) was 48.9 µM and the GI50 (NCI-H23) was 29 µM (inactive).
For `CC1=C(Cl)C=CP(=O)(OC(C)C)C1` (stereo not drawn), the GI50 (HOP-62) was > 100 µM (inactive), the GI50 (UACC-257) was > 100 µM (inactive) and the GI50 (SF-539) was > 100 µM (inactive). The GI50 (RPMI-8226) was 50.2 µM (inactive), the GI50 (SK-MEL-28) was > 100 µM (inactive) and the GI50 (SN12C) was > 100 µM (inactive). For the same molecule, the GI50 (SW-620) was 67.8 µM (inactive), the GI50 (HOP-92) was > 100 µM (inactive) and the GI50 (SF-295) was > 100 µM (inactive). For the same molecule, the GI50 (HT-29) was > 100 µM (inactive), the GI50 (786-0) was > 100 µM (inactive) and the GI50 (SK-MEL-2) was > 100 µM (inactive). For the same molecule, the GI50 (ACHN) was > 100 µM (inactive), the GI50 (SK-MEL-5) was > 100 µM (inactive) and the GI50 (SR) was 46.2 µM (inactive). The GI50 (HCT-15) was over 100 µM and the GI50 (NCI-H23) was > 100 µM (inactive).
For `CC(=O)Nc1ccc(/C=C/c2ccc(NC(=O)Nc3ccc(/C=C/c4ccc(NC(C)=O)cc4S(=O)(=O)O)c(S(=O)(=O)O)c3)cc2S(=O)(=O)O)c(S(=O)(=O)O)c1`, the GI50 (HOP-62) was > 100 µM (inactive), the GI50 (UACC-257) was > 100 µM (inactive) and the GI50 (SF-539) was > 100 µM (inactive). For the same molecule, the GI50 (RPMI-8226) was > 100 µM (inactive), the GI50 (SK-MEL-28) was > 100 µM (inactive) and the GI50 (SN12C) was > 100 µM (inactive). For the same molecule, the GI50 (SW-620) was > 100 µM (inactive), the GI50 (HOP-92) was 43.1 µM (inactive) and the GI50 (SF-295) was > 100 µM (inactive). For the same molecule, the GI50 (NCI/ADR-RES) was > 100 µM (inactive), the GI50 (HT-29) was > 100 µM (inactive) and the GI50 (SK-MEL-2) was > 100 µM (inactive). For the same molecule, the GI50 (SK-MEL-5) was > 100 µM (inactive), the GI50 (HCT-15) was 45.8 µM and the GI50 (NCI-H23) was > 100 µM (inactive).
`CCCCCCCCCC[C@@H](O)[C@@H]1CC[C@@H]([C@@H]2CC[C@@H]([C@@H](O)CCCCCCCCCCC(O)CC3=CC(C)OC3=O)O2)O1` (stereo partly drawn) was tested, and the GI50 (HOP-62) was 0.655 µM (active), the GI50 (UACC-257) was 2.42 µM (inactive) and the GI50 (SF-539) was > 10 µM (inactive). For the same molecule, the GI50 (RPMI-8226) was 1.26 µM (inactive), the GI50 (SK-MEL-28) was > 10 µM (inactive) and the GI50 (SN12C) was > 10 µM (inactive). The GI50 (SW-620) was 8.2 µM (inactive), the GI50 (SF-295) was 2.72 µM (inactive) and the GI50 (NCI/ADR-RES) was 0.729 µM (active). The GI50 (HT-29) was > 10 µM (inactive), the GI50 (DU-145) was 3.98 µM (inactive) and the GI50 (ACHN) was 0.931 µM (active). The GI50 (SK-MEL-5) was 0.333 µM (active), the GI50 (SR) was 1.4 µM (inactive) and the GI50 (HCT-15) was 5.89 µM.
